{"source": "patent US9796730B2", "about": "“Halogenated benzoxazines and their use” (priority 2012, dated 2017)", "key": {"Aβ plaques [1]": {"system": "Aβ plaques", "experiment": "Detection of Aβ plaques by means of MRT and optical fluorescence measurements in the mice model", "type": "in vivo, transgenic APP23 mice and non-transgenic control mice", "details": "age 28 months, 2 mg/kg body weight", "excerpt": "Detection of Aβ Plaques by Means of MRT in the Mice Model\nFor the MRT measurements a threedimensional gradient echosequence (gre3D) which both comprises T1 as well as T2* parts, and a quantitative T2 value determination sequence (T2map) were used.\nThe observations made in vivo could also be confirmed ex vivo after a preparation of the brains."}, "Aβ plaques [2]": {"system": "Aβ plaques", "experiment": "Detection of Aβ plaques by means of optical imaging (OI) in the mouse model", "type": "in vivo, transgenic APPPS1 mice and non-transgenic control mice", "method": "Detection of Aβ Plaques by Means of Optical Imaging (OI) in the Mouse Model\nThe compound was formulated in physiological saline solution (0.9% NaCl) in a concentration of 0.05 mg/ml and intravenously injected into the mice. In the following the mice were examined by means of OI (Aequoria Hamamatsu Optical Imaging System), the signal was detected at 650 nm.\nIt is clear for the skilled person that this labeling can—depending on the kind of labeling—be realized by any method, such as OI, PET (e.g. with ^76Br, ^75Br or ^18F labeled compounds) or MRT (e.g. with ^19F labeled compounds).\nThe signal strength was quantified as a relative fluorescence signal, whereby 30 min after the injection was chosen as the reference point in time. The signal strength was calculated by percentage after the subtraction of the auto fluorescence (resulting in relative intensity values, Irel) and then the percentage difference between the transgenic and control mice—in the following referred to as specific binding (Bsp)—was calculated and plotted against the age of the transgenic mice (see FIG. 3). It turned out that there is a significant correlation between the age and the development of the Alzheimer's disease and the signal strength, where it was especially noted that the compound according to the invention has no saturation or ceiling effects in a way that the signal strength is not increasing at a specific concentration of Aβ plaques. To the contrary, at the age of 21 months for the transgenic mice a particularly strong signal has been measured."}, "[3]": {"experiment": "Storage stability of the isolated title compound", "type": "physicochemical", "details": "within 12 hours at −25° C.", "method": "The title compound is instable and decomposes within 12 hours to 50% at −25° C. For this reason the title compound is further converted directly after the isolation."}}}
{"smiles": "CCN1CCOc2cc3c(cc21)Oc1cc2c(cc1=N3)OCC[N+]=2CC[19F]", "note": "[Example 1, 8-Ethyl-4-(2-fluoroethyl)-3,8,9,10-tetrahydro-2H-bis([1,4]oxazino)[2,3-b:3′,2′-i]phenoxazin-4-ium chloride]", "values": [{"measurement": "enrichment in control mice (MRT and fluorescence)", "setting": "Aβ plaques [1]; non-transgenic control mice", "value": "neither for the MRT measurements nor the fluorescence measurements a specific enrichment"}, {"measurement": "enrichment in transgenic mice (MRT and fluorescence)", "setting": "Aβ plaques [1]; transgenic APP23 mice, measurement period 90 minutes", "value": "a specific enrichment in the transgenic mice could be detected"}]}
{"smiles": "CCN1CCOc2cc3c(cc21)Oc1cc2c(cc1=N3)OCC[N+]=2CC[18F]", "note": "[Example 3, [F-18]-8-Ethyl-4-(2-Fluoroethyl)-3,8,9,10-tetrahydro-2H-bis([1,4]-oxazino)[2,3-b:3′,2′-i]phenoxazin-4-ium chloride]", "values": [{"measurement": "binding to Aβ plaques (summary of OI examinations)", "setting": "Aβ plaques [2]; in vivo, OI", "value": "selectively binds to Aβ plaques"}, {"measurement": "accumulation in control mice (OI signal)", "setting": "Aβ plaques [2]; non-transgenic control mice, 0.1 mg/kg body weight i.v., signal at 650 nm, FIG. 1", "value": "no accumulation could be detected"}, {"measurement": "accumulation in transgenic mice (OI signal)", "setting": "Aβ plaques [2]; transgenic APPPS1 mice, 0.1 mg/kg body weight i.v., signal at 650 nm, FIG. 1 (age 12 months, 120 min after injection)", "value": "specifically accumulates in transgenic mice"}, {"measurement": "enrichment as a function of the age of the transgenic mice", "setting": "Aβ plaques [2]; transgenic APPPS1 mice, 0.1 mg/kg i.v., OI", "value": "increases with the age of the transgenic mice"}, {"measurement": "enrichment in transgenic mice of an age of 2 months", "setting": "Aβ plaques [2]; transgenic APPPS1 mice, age 2 months, 0.1 mg/kg i.v., OI, FIG. 2", "value": "no enrichment can be detected"}, {"measurement": "enrichment in transgenic mice at the age of 12 months", "setting": "Aβ plaques [2]; transgenic APPPS1 mice, age 12 months, 0.1 mg/kg i.v., OI, FIG. 2", "value": "a significant enrichment can be seen"}]}
{"smiles": "Oc1ccc2c(c1)N(CCBr)CCO2", "note": "[Example 13A, 4-(2-Bromoethyl)-3,4-dihydro-2H-benzo[b][1,4]oxazin-6-ol]", "values": [{"measurement": "decomposition on storage", "setting": "[3]", "value": 50, "unit": "%"}]}
